Measurements from patent US9035059B2, “Nitrogen-containing condensed heterocyclic compound” (TAISHO PHARMACEUTICAL CO., LTD., priority 2011, dated 2015).

These compounds were tested against human MGAT2 (Homo sapiens (Human), UniProt Q3SYC2) (assay: Test Example 1: Test of MGAT2 inhibitory action (human MGAT2 enzyme fraction from Sf9 cells, free CoA detected by CPM fluorescence)). Settings: human MGAT2 enzyme fraction expressed in Sf9 insect cells, 0.5 μg/ml, 2-monooleoyl glycerol 0.78 μM, oleoyl-CoA 5.3 μM, room temperature 20 min, listed as 10-3, read-out: Activity Value [nM] (IC50, concentration at which 50% of produced free CoA was inhibited).
Assay type: biochemical
Method: The MGAT2 inhibitory action of the inventive compound was measured by the methods described in Test Examples as shown below. The MGAT enzyme activity was measured based on the amount of an indicator, free Coenzyme A (CoA) which is generated by the reaction shown below, using a sulfhydryl reactive pigment (7-diethylamino-3-(4-maleimidophenyl)-4-methylcoumarin; hereinafter, sometimes abbreviated as CPM).
A test for MGAT2 inhibitory action of test compounds was conducted in accordance with a partially modified version of the method described in John F. Lockwood et al., Am. J. Physiol. Endocrinol. Metab., 2003, 285, E927.
Bac-to-Bac Baculovirus Expression System (Life Technologies Japan) was used to express human MGAT2 in insect cells (Sf9) (Life Technologies Japan). These cells were sonicated and centrifuged at 100,000 g×1 hr to give a precipitate. The precipitate was used as a human MGAT2 enzyme fraction in this assay.
This test was conducted using a black flat-bottom 96-well plate (Corning). A buffer solution with final concentrations of 5 mM magnesium chloride, 100 mM sucrose and 100 mM Tris-HCl (pH=7.5) was prepared and test compounds prepared in various concentrations using dimethyl sulfoxide were added thereto to give a final dimethyl sulfoxide concentration of 1%. The MGAT2 enzyme fraction was added thereto to give a final concentration of 0.5 μg/ml and phosphatidylcholine, 2-monooleoyl glycerol and oleoyl-CoA were added thereto to give final concentrations of 7.5 μM, 0.78 μM and 5.3 μM, respectively, before starting a reaction. The reaction was performed at room temperature for 20 min.
After 20 min, a CPM-containing solution was added thereto to give a final concentration of 5 μM before stopping the MGAT reaction. After 1 hr, a fluorescence detector (Infinite 200 from Tecan Japan) was used to measure the CPM fluorescence value of each well (excitation 380 nm, emission 460 nm).

Chain of human MGAT2 (Q3SYC2 whole entry): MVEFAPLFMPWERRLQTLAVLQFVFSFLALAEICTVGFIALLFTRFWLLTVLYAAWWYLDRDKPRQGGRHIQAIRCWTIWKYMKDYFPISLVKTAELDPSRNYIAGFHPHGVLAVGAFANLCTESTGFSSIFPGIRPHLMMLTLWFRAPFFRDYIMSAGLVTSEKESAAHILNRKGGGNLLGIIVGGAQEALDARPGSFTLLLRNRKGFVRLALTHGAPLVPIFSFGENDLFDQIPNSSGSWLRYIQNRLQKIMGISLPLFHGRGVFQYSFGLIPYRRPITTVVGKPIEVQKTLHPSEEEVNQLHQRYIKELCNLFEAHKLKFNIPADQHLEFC

In the case of `CCCCCCOc1ccc(NS(=O)(=O)c2ccc3c(c2)CCN(C(C)Cc2ccc(C(C)(C)C)cc2)C3)c(F)c1` (single isomer, unassigned) [Working Example 10-3], the IC50 is reported as 26 nM.

Same assay, conditions: human MGAT2 enzyme fraction expressed in Sf9 insect cells, 0.5 μg/ml, 2-monooleoyl glycerol 0.78 μM, oleoyl-CoA 5.3 μM, room temperature 20 min, listed as 10-4, read-out: Activity Value [nM] (IC50, concentration at which 50% of produced free CoA was inhibited)

For `CCCCCCOc1ccc(NS(=O)(=O)c2ccc3c(c2)CCN(C(C)Cc2ccc(C(C)(C)C)cc2)C3)c(F)c1` (single isomer, unassigned) [Working Example 10-4], the IC50 was 39 nM.

Same assay, conditions: human MGAT2 enzyme fraction expressed in Sf9 insect cells, 0.5 μg/ml, 2-monooleoyl glycerol 0.78 μM, oleoyl-CoA 5.3 μM, room temperature 20 min, listed as 10-5, read-out: Activity Value [nM] (IC50, concentration at which 50% of produced free CoA was inhibited)

With `CC(Cc1ccc(C(C)(C)C)cc1)N1CCc2cc(S(=O)(=O)Nc3ccc(CCCC4CCCC4)cc3F)ccc2C1` (single isomer, unassigned) [Working Example 10-5] the IC50 was 25 nM.

Same assay, conditions: human MGAT2 enzyme fraction expressed in Sf9 insect cells, 0.5 μg/ml, 2-monooleoyl glycerol 0.78 μM, oleoyl-CoA 5.3 μM, room temperature 20 min, listed as 10-8, read-out: Activity Value [nM] (IC50, concentration at which 50% of produced free CoA was inhibited)

With `CCCCCCCc1ccc(NS(=O)(=O)c2ccc3c(c2)CCN(C(C)Cc2ccc(C(C)(C)C)cc2)C3)c(F)c1` (single isomer, unassigned) [Working Example 10-8] the IC50 was 62 nM.

Same assay, conditions: human MGAT2 enzyme fraction expressed in Sf9 insect cells, 0.5 μg/ml, 2-monooleoyl glycerol 0.78 μM, oleoyl-CoA 5.3 μM, room temperature 20 min, listed as 10-14, read-out: Activity Value [nM] (IC50, concentration at which 50% of produced free CoA was inhibited)

With `CC(Cc1ccc(C(C)(C)C)cc1)N1CCc2cc(S(=O)(=O)Nc3ccc(OCCCC4CCCCC4)cc3F)ccc2C1` (single isomer, unassigned) [Working Example 10-14] the IC50 was 106 nM.

Same assay, conditions: human MGAT2 enzyme fraction expressed in Sf9 insect cells, 0.5 μg/ml, 2-monooleoyl glycerol 0.78 μM, oleoyl-CoA 5.3 μM, room temperature 20 min, read-out: Activity Value [nM] (IC50, concentration at which 50% of produced free CoA was inhibited)

First: CC(C)(C)c1ccc(CCN2CCc3cc(S(=O)(=O)Nc4ccc(OCCCCc5ccccc5)cc4F)ccc3C2)cc1 [Working Example 8-1, 2-[2-(4-tert-Butylphenyl)ethyl]-N-[2-fluoro-4-(4-phenylbutoxy)phenyl]-1,2,3,4-tetrahydroisoquinoline-6-sulfonamide]
Second: CC(C)(C)c1ccc(CCN2CCc3cc(S(=O)(=O)Nc4ccc(OCCCCCc5ccccc5)cc4F)ccc3C2)cc1 [17-5]
The IC50 of the first is 2.9-fold higher: 70 nM for the first, 24 nM for the second.

Compared with `CCC(c1ccc(C(C)(C)C)cc1)N1CCc2cc(S(=O)(=O)Nc3ccc(OCCCc4ccccc4)cc3F)ccc2C1` (stereo not drawn) [Working Example 11-4], `CC(c1ccc(C(C)(C)C)nc1)N1CCc2cc(S(=O)(=O)Nc3ccc(OCCCc4ccccc4)cc3F)ccc2C1` (stereo not drawn) [Working Example 11-2] is 1.9-fold lower in IC50: 235 nM for the first, 121 nM for the second.

First: CC(C)(C)c1ccc(NC(=O)N2Cc3ccc(S(=O)(=O)Nc4ccc(OCCCc5ccccc5)cc4F)cc3C2)cc1 [18-15]
Second: CC(C)(C)c1ccc(NC(=O)N2Cc3ccc(S(=O)(=O)Nc4ccc(OCCCCCc5ccccc5)cc4F)cc3C2)cc1 [18-16]
The IC50 of the first is 5.6-fold higher: 56 nM for the first, 10 nM for the second. The second is the more potent here.

Compared with `CCCCCCCOc1ccc(NS(=O)(=O)c2ccc3c(c2)CN(C(=O)Nc2ccc(C(C)(C)C)cc2)C3)c(F)c1` [19-8], `CCCCCCOc1ccc(NS(=O)(=O)c2ccc3c(c2)CN(C(=O)Nc2ccc(C(C)(C)C)cc2)C3)c(F)c1` [18-6] is 1.5-fold higher in IC50: 28 nM for the first, 43 nM for the second.

`O=S(=O)(Nc1ccc(CCCC2CCCC2)cc1F)c1ccc2c(c1)CCN(Cc1ccc(OC(F)(F)C(F)F)cc1)C2` [Working Example 7-50] and `CC(C)Oc1ccc(CN2CCc3cc(S(=O)(=O)Nc4ccc(CCCC5CCCC5)cc4F)ccc3C2)cc1` [Working Example 7-45] are within 1.5-fold of each other in IC50: 273 nM for the first, 199 nM for the second.

Compared with `CC(C)(C)c1ccc(NC(=O)N2Cc3ccc(S(=O)(=O)Nc4ccc(OCCC5CCCC5)cc4F)cc3C2)cc1` [18-32], `CC(C)(C)c1ccc(NC(=O)N2Cc3ccc(S(=O)(=O)Nc4ccc(OCCCC5CCCCC5)cc4F)cc3C2)cc1` [18-12] is 2.2-fold lower in IC50: 58 nM for the first, 26 nM for the second. The second is the more potent here.

First: CC(C)(C)c1ccc(C(=O)N2CCc3cc(S(=O)(=O)Nc4ccc(CCCC5CCCC5)cc4F)ccc3C2)cc1 [Working Example 1-4]
Second: CC(C)(C)c1ccc(CCN2CCc3cc(S(=O)(=O)Nc4ccc(CCCC5CCCCC5)cc4F)ccc3C2)cc1 [Working Example 6-19]
The IC50 of the first is 3.4-fold higher: 211 nM for the first, 62 nM for the second.

`CCCCCCOc1ccc(NS(=O)(=O)c2ccc3c(c2)CCN(C(=O)Nc2ccc(CCCC)cc2)C3)c(F)c1` [14-3] and `CCCCCCOc1ccc(NS(=O)(=O)c2ccc3c(c2)CCN(C(=O)Nc2ccc(C(C)(C)C)cc2)C3)c(F)c1` [14-4] are within 1.5-fold of each other in IC50: 76 nM for the first, 98 nM for the second.

Compared with `O=C(NC1CCCCC1)N1CCc2cc(S(=O)(=O)Nc3ccc(CCCC4CCCC4)cc3F)ccc2C1` [14-36], `O=C(c1ccc(C(F)(F)F)nc1)N1CCc2cc(S(=O)(=O)Nc3ccc(CCCC4CCCC4)cc3F)ccc2C1` [Working Example 1-5] is 2.2-fold higher in IC50: 69 nM for the first, 154 nM for the second. The first is the more potent here.

First: CC(C)(C)c1ccc(CC(=O)N2CCc3cc(S(=O)(=O)Nc4ccc(OCCC5CCCCC5)cc4F)ccc3C2)cc1 [Working Example 4-1, 2-[(4-tert-Butylphenyl)acetyl]-N-[4-(2-cyclohexylethoxy)-2-fluorophenyl]-1,2,3,4-tetrahydroisoquinoline-6-sulfonamide]
Second: CC(C)(C)c1ccc(CN2CCc3cc(S(=O)(=O)Nc4ccc(OCCCC5CCCCC5)cc4F)ccc3C2)cn1 [Working Example 6-35]
The IC50 of the first is 2.3-fold higher: 149 nM for the first, 65 nM for the second. The second is the more potent here.

Going from `CC(C)(C)c1ccc(CN2CCc3cc(S(=O)(=O)Nc4ccc(CCCC5CCCC5)cc4F)ccc3C2)cn1` [Working Example 6-31] to `CC(C)(C)c1ccc(CCN2CCc3cc(S(=O)(=O)Nc4ccc(CCCC5CCCC5)cc4F)ccc3C2)cn1` [Working Example 6-63], the IC50 rises from 31 nM to 62 nM (2-fold).

Compared with `CC(C)(C)c1ccc(NC(=O)N2Cc3ccc(S(=O)(=O)Nc4ccc(OCC5CCCCC5)cc4F)cc3C2)cc1` [18-10], `CC(C)(C)c1ccc(NC(=O)N2Cc3ccc(S(=O)(=O)Nc4ccc(OCCOC5CCCC5)cc4F)cc3C2)cc1` [18-29] is 1.8-fold lower in IC50: 230 nM for the first, 128 nM for the second. The second is the more potent here.

`Cc1nc(-c2ccc(C(F)(F)F)cc2)sc1CN1CCc2cc(S(=O)(=O)Nc3ccc(CCCC4CCCC4)cc3F)ccc2C1` [Working Example 6-65] and `CC(C)(C)c1ncc(CN2CCc3cc(S(=O)(=O)Nc4ccc(CCCC5CCCC5)cc4F)ccc3C2)cn1` [Working Example 7-56] are within 1.5-fold of each other in IC50: 51 nM for the first, 52 nM for the second.

`COc1ccc(OCCOc2ccc(NS(=O)(=O)c3ccc4c(c3)CN(C(=O)Nc3ccc(C(C)(C)C)cc3)C4)c(F)c2)cc1` [18-22] and `CC(C)(C)c1ccc(NC(=O)N2Cc3ccc(S(=O)(=O)Nc4ccc(OCCCOc5ccccc5)cc4F)cc3C2)cc1` [18-23] are within 1.5-fold of each other in IC50: 120 nM for the first, 92 nM for the second.

Going from `CC(C)(C)c1ccc(CCN2CCc3cc(S(=O)(=O)Nc4ccc(CCCC5CCOCC5)cc4F)ccc3C2)cc1` [Working Example 6-75] to `CC(C)(C)c1cnc(CCN2CCc3cc(S(=O)(=O)Nc4ccc(CCCC5CCCC5)cc4F)ccc3C2)nc1` [Working Example 6-64], the IC50 rises from 24 nM to 40 nM (1.7-fold).

Compared with `CCCCCCCc1ccc(NS(=O)(=O)c2ccc3c(c2)CCN(CCCCCC)C3)c(F)c1` [Working Example 7-35], `CCCCCCCCOc1ccc(NS(=O)(=O)c2ccc3c(c2)CCN(CCc2ccc(C(C)(C)C)cc2)C3)c(F)c1` [17-2] is 4.9-fold lower in IC50: 220 nM for the first, 45 nM for the second. The second is the more potent here.

`CC(C)(C)c1ccc(NC(=O)N2Cc3ccc(S(=O)(=O)Nc4ccc(OCCc5ccccn5)cc4F)cc3C2)cc1` [19-12] and `CC(C)(C)c1ccc(NC(=O)N2Cc3ccc(S(=O)(=O)Nc4ccc(OCCCCOc5ccccc5)cc4F)cc3C2)cc1` [18-25] are within 1.5-fold of each other in IC50: 23 nM for the first, 33 nM for the second.

Going from `CCCCCCCOc1ccc(NS(=O)(=O)c2ccc3c(c2)CCN(CCc2ccc(C(C)(C)C)cc2)C3)c(F)c1` [17-1, 2-[2-(4-tert-Butylphenyl)ethyl]-N-[2-fluoro-4-(heptyloxy)phenyl]-1,2,3,4-tetrahydroisoquinoline-6-sulfonamide] to `CCCCCCOc1ccc(NS(=O)(=O)c2ccc3c(c2)CCN(CCc2ccc(C(C)(C)CO)cc2)C3)c(F)c1` [Working Example 6-30], the IC50 rises from 40 nM to 214 nM (5.3-fold).

First: CC(C)(C)c1ccc(CN2CCc3cc(S(=O)(=O)Nc4ccc(OCCCCCc5ccccc5)cc4F)ccc3C2)cn1 [Working Example 6-34]
Second: CC(c1ccc(C(C)(C)C)nc1)N1CCc2cc(S(=O)(=O)Nc3ccc(OCCCCCc4ccccc4)cc3F)ccc2C1 (stereo not drawn) [23-2]
The IC50 of the first is 2.6-fold higher: 36 nM for the first, 14 nM for the second. The second is the more potent here.

`CCCCCCOc1ccc(NS(=O)(=O)c2ccc3c(c2)CCN(Cc2cnc(C(C)(C)C)s2)C3)c(F)c1` [Working Example 7-19] and `COc1cc(F)cc(F)c1NS(=O)(=O)c1ccc2c(c1)CN(C(=O)Nc1ccc(C(C)(C)C)cc1)C2` [14-21] are within 1.5-fold of each other in IC50: 195 nM for the first, 193 nM for the second.
